Laboratory results: patent US8618289B2 (Ambit Biosciences Corporation, priority 2008, dated 2013)
Counter-ions that a name gives are not always drawn.

Key:
[1] = tested on: MEK1 phosphorylation in the A375 human melanoma cell line; assay: cells; conditions: A-375, read-out: pMEK IC50
RAF kinases [2] = target: RAF kinases (Homo sapiens, UniProt P04049); conditions: read-out: RAF1 Kd; RAF1
Method: (§1) Competition binding assays used herein were developed, validated and performed as described in Fabian et al., Nature Biotechnology 2005, 23, 329-336. […] The liganded beads were blocked with excess biotin and washed with blocking buffer (SeaBlock (Pierce), 1% BSA, 0.05% Tween 20, 1 mM DTT) to remove unbound ligand and to reduce non-specific binding. […] Test compounds were prepared as 100× stocks in DMSO and rapidly diluted into the aqueous environment. DMSO was added to control assays lacking a test compound. Primary screen interactions were performed in polypropylene 384-well plates in a final volume of 34 μt, while Kd determinations were performed in polystyrene 96-well plates in a final volume of 135 pt. […] The kinase concentration in the eluates was measured by quantitative PCR. Each kinase was tested individually against each compound. Kds were determined using eleven serial threefold dilutions. A selectivity score, which is a quantitative measure of selectivity of a compound against a panel of enzymes, may be calculated for a compound by dividing the number of enzymes for which a compound meets a set criteria, (for example, a binding constant of 100 nM or less), by the total number of enzymes tested. […] (Note, for those compounds tested in a larger kinase panel, as indicated by an asterisk (*) next to the S35 score, the divisor is 321 (i.e. the larger panel contains 321 distinct kinases, excluding mutant variants.)).

RAF kinases [3] = target: RAF kinases (Homo sapiens, UniProt P15056); conditions: read-out: BRAF WT Kd; BRAF WT
Chain of RAF kinases (Homo sapiens, UniProt P15056) (P15056 whole entry): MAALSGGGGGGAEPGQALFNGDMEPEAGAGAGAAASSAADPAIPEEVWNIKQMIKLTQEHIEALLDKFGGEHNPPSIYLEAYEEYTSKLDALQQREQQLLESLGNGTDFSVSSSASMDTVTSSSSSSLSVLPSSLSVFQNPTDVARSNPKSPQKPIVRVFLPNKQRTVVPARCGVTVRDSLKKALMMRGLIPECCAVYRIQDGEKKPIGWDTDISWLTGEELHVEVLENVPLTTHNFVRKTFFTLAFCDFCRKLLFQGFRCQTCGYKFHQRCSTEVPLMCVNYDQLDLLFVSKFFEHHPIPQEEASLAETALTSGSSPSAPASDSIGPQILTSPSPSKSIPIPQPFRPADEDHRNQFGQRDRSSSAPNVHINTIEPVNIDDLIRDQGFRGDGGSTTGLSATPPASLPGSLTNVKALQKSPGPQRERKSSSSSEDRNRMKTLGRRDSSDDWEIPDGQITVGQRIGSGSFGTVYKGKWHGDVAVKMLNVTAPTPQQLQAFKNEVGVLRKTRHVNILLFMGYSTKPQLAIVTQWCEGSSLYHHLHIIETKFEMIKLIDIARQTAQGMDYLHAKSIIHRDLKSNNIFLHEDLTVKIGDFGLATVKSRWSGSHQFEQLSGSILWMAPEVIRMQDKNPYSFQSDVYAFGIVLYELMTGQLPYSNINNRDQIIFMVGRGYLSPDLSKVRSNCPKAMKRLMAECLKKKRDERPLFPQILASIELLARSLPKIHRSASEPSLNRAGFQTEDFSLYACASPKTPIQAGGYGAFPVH
Method: as §1

RAF kinases [4] = target: RAF kinases (Homo sapiens, UniProt P15056, V600E); conditions: read-out: BRAF V600E Kd; BRAF V600E
Chain of RAF kinases (Homo sapiens, UniProt P15056, V600E) (P15056 whole entry V600E): as the sequence (P15056 whole entry) above, with V600E counted along it
Method: as §1

A375 cells = assay: cells; conditions: Homo sapiens, A-375, read-out: A375 Viability EC50

Chain of RAF kinases (Homo sapiens, UniProt P04049) (P04049 whole entry): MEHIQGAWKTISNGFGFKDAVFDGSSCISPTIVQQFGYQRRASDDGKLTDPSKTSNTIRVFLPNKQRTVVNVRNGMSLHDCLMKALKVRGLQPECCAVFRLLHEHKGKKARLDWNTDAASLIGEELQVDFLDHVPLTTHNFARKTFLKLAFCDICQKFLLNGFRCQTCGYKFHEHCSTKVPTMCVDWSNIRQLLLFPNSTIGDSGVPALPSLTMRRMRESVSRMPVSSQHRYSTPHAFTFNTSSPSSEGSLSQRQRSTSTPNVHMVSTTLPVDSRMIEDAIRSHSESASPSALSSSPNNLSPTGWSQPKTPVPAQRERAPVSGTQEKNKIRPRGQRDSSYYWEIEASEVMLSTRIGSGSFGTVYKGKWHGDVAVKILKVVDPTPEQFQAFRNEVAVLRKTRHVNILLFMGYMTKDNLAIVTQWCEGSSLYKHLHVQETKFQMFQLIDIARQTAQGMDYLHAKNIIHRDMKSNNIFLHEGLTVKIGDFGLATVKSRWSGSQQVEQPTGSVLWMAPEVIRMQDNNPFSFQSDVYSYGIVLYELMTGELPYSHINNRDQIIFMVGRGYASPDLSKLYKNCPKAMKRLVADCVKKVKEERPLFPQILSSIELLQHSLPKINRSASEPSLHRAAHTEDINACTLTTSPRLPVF

| IC50 [1] | Kd (RAF kinases [2]) | Kd (RAF kinases [3]) | Kd (RAF kinases [4]) | EC50 (A375 cells) | SMILES |
| --- | --- | --- | --- | --- | --- |
| < 250 nM | < 250 nM | < 250 nM | < 250 nM | < 250 nM | COc1cc2c(Oc3cccc(NC(=O)Nc4cc(C(C)(C)C)on4)c3)ncnc2cc1OCCCN1CCS(=O)(=O)CC1 [Ex 256, 1-(5-tert-butyl-isoxazol-3-yl)-3-(3-{7-[3-(1,1-dioxo-thiomorpholin-4-yl)-propoxy]-6-methoxy-quinazolin-4-yloxy}-phenyl)-urea] |
| < 250 nM | < 250 nM | < 250 nM | < 250 nM | 250 to 500 nM | COCCOc1cc2ncnc(Oc3cccc(NC(=O)Nc4cc(C5CCCC5)on4)c3)c2cc1OC [Ex 219, 1-(5-cyclopentylisoxazol-3-yl)-3-(3-(6-methoxy-7-(2-methoxyethoxy)quinazolin-4-yloxy)phenyl)urea] |
| 250 to 500 nM | > 1000 nM | > 1000 nM | > 1000 nM | 250 to 500 nM | COCCOc1cc2ncnc(Sc3cccc(NC(=O)Nc4cc(C(F)(F)F)nn4-c4ccc(C)cc4)c3)c2cc1OC [Ex 243, 1-{3-[6-methoxy-7-(2-methoxyethoxy)quinazolin-4-ylthio]phenyl}-3-[1-p-tolyl-3-(trifluoromethyl)-1H-pyrazol-5-yl]urea] |
| < 250 nM | < 250 nM | < 250 nM | < 250 nM | < 250 nM | CCOc1cc2c(Oc3cccc(NC(=O)Nc4cc(C(C)(CF)CF)on4)c3)ncnc2cc1OC [Ex 393, 1-(5-(1,3-difluoro-2-methylpropan-2-yl)isoxazol-3-yl)-3-(3-(6-ethoxy-7-methoxyquinazolin-4-yloxy)phenyl)urea] |
| 500 to 1000 nM | < 250 nM | < 250 nM | < 250 nM | > 1000 nM | COCCOc1cc2ncnc(Oc3cccc(NC(=O)Nc4cccc(C(C)(C)C#N)c4)c3)c2cc1OC [Ex 280, 1-(3-(2-cyanopropan-2-yl)phenyl)-3-(3-(6-methoxy-7-(2-methoxyethoxy)quinazolin-4-yloxy)phenyl)urea] |
| 500 to 1000 nM | < 250 nM | < 250 nM | < 250 nM | 250 to 500 nM | CCOc1cc2ncnc(Sc3cccc(NC(=O)Nc4cc(C(C)(C)F)no4)c3)c2cc1OC [Ex 389, 1-(3-(7-ethoxy-6-methoxyquinazolin-4-ylthio)phenyl)-3-(3-(2-fluoropropan-2-yl)isoxazol-5-yl)urea] |
| < 250 nM | < 250 nM | < 250 nM | < 250 nM | < 250 nM | CCOc1cc2c(Oc3cccc(NC(=O)Nc4cc(C(C)(C)F)no4)c3)ncnc2cc1OC [Ex 392, 1-(3-(6-ethoxy-7-methoxyquinazolin-4-yloxy)phenyl)-3-(3-(2-fluoropropan-2-yl)isoxazol-5-yl)urea] |
| < 250 nM | < 250 nM | < 250 nM | < 250 nM | 250 to 500 nM | CCOc1cc2c(Sc3cccc(NC(=O)Nc4cc(C(C)(C)F)no4)c3)ncnc2cc1OC [Ex 394, 1-(3-(6-ethoxy-7-methoxyquinazolin-4-ylthio)phenyl)-3-(3-(2-fluoropropan-2-yl)isoxazol-5-yl)urea] |
| 250 to 500 nM | < 250 nM | < 250 nM | < 250 nM | > 1000 nM | COc1cc2c(Oc3cccc(NC(=O)Nc4ccc(OC)c(C(F)(F)F)c4)c3)ncnc2cc1OCCN1CCOCC1 [Ex 250, 1-(4-methoxy-3-(trifluoromethyl)phenyl)-3-(3-(6-methoxy-7-(2-morpholinoethoxy)quinazolin-4-yloxy)phenyl)urea] |
| < 250 nM | < 250 nM | < 250 nM | < 250 nM | < 250 nM | COc1cc2ncnc(Oc3cccc(NC(=O)Nc4cc(C(C)(C)C(F)(F)F)on4)c3)c2cc1O [Ex 264, 1-(3-(6-hydroxy-7-methoxyquinazolin-4-yloxy)phenyl)-3-(5-(1,1,1-trifluoro-2-methylpropan-2-yl)isoxazol-3-yl)urea] |
| > 1000 nM | < 250 nM | < 250 nM | < 250 nM | > 1000 nM | COCCOc1cc2ncnc(Oc3cccc(NC(=O)Nc4cc(C5CC5)no4)c3)c2cc1OC [Ex 214, 1-(3-cyclopropylisoxazol-5-yl)-3-(3-(6-methoxy-7-(2-methoxyethoxy)quinazolin-4-yloxy)phenyl)urea] |
| 250 to 500 nM | < 250 nM | < 250 nM | < 250 nM | < 250 nM | COc1cc2ncnc(Sc3cccc(NC(=O)Nc4cc(C5(C(F)(F)F)CC5)on4)c3)c2cc1OC [Ex 378, 1-(3-(6,7-dimethoxyquinazolin-4-ylthio)phenyl)-3-(5-(1-(trifluoromethyl)cyclopropyl)isoxazol-3-yl)urea] |
| < 250 nM | > 1000 nM | > 1000 nM | > 1000 nM | > 1000 nM | COCCOc1cc2ncnc(Sc3cccc(NC(=O)Nc4cc(C(C)(CF)CF)nn4-c4ccccc4)c3)c2cc1OC [Ex 238, 1-[3-(1,3-difluoro-2-methylpropan-2-yl)-1-phenyl-1H-pyrazol-5-yl]-3-{3-[6-methoxy-7-(2-methoxyethoxy)quinazolin-4-ylthio]phenyl}urea] |
| < 250 nM | < 250 nM | < 250 nM | < 250 nM | 250 to 500 nM | COc1cc2ncnc(Oc3cc(NC(=O)Nc4cc(C(C)(C)F)no4)ccc3F)c2cc1OC [Ex293, 1-(3-(6,7-dimethoxyquinazolin-4-yloxy)-4-fluorophenyl)-3-(3-(2-fluoropropan-2-yl)isoxazol-5-yl)urea] |
| 250 to 500 nM | < 250 nM | < 250 nM | < 250 nM | > 1000 nM | COCCOc1cc2ncnc(Sc3cccc(NC(=O)Nc4cc(C(F)(F)F)nn4C)c3)c2cc1OC [Ex 239, 1-{3-[6-methoxy-7-(2-methoxyethoxy)quinazolin-4-ylthio]phenyl}-3-[1-methyl-3-(trifluoromethyl)-1H-pyrazol-5-yl]urea] |
| < 250 nM | < 250 nM | < 250 nM | < 250 nM | < 250 nM | COc1cc2ncnc(Oc3cc(NC(=O)Nc4cc(C(C)(C)F)no4)c(F)cc3F)c2cc1OC [Ex 269, 1-(5-(6,7-dimethoxyquinazolin-4-yloxy)-2,4-difluorophenyl)-3-(3-(2-fluoropropan-2-yl)isoxazol-5-yl)urea] |
| < 250 nM | < 250 nM | < 250 nM | < 250 nM | 500 to 1000 nM | COc1cc2ncnc(Oc3cccc(NC(=O)Nc4cc(C(C)(C)C(F)(F)F)no4)c3)c2cc1OC [Ex 267, 1-(3-(6,7-dimethoxyquinazolin-4-yloxy)phenyl)-3-(3-(1,1,1-trifluoro-2-methylpropan-2-yl)isoxazol-5-yl)urea] |
| < 250 nM | > 1000 nM | > 1000 nM | > 1000 nM | 250 to 500 nM | COc1cc2ncnc(Oc3ccc(Cl)c(NC(=O)Nc4cc(C(C)(C)C)nn4-c4ccccc4)c3)c2cc1OC [Ex 301, 1-(3-tert-butyl-1-phenyl-1H-pyrazol-5-yl)-3-(2-chloro-5-(6,7-dimethoxyquinazolin-4-yloxy)phenyl)urea] |
| 250 to 500 nM | < 250 nM | < 250 nM | < 250 nM | 250 to 500 nM | CCOc1cc2ncnc(Sc3cccc(NC(=O)Nc4cc(C(C)(CF)CF)on4)c3)c2cc1OC [Example 388, 1-(5-(1,3-difluoro-2-methylpropan-2-yl)isoxazol-3-yl)-3-(3-(7-ethoxy-6-methoxyquinazolin-4-ylthio)phenyl)urea] |
| < 250 nM | < 250 nM | < 250 nM | < 250 nM | 250 to 500 nM | COc1cc2ncnc(Oc3cccc(NC(=O)Nc4cc(C(C)(C)C)on4)c3C)c2cc1OC [Ex290, 1-(5-tert-butylisoxazol-3-yl)-3-(3-(6,7-dimethoxyquinazolin-4-yloxy)-2-methylphenyl)urea] |
| 500 to 1000 nM | < 250 nM | < 250 nM | < 250 nM | > 1000 nM | COCCOc1cc2ncnc(Oc3cccc(NC(=O)Nc4cc(C(F)(F)F)nn4C)c3)c2cc1OC [Ex 220, 1-{3-[6-methoxy-7-(2-methoxyethoxy)quinazolin-4-yloxy]phenyl}-3-[1-methyl-3-(trifluoromethyl)-1H-pyrazol-5-yl]urea] |
| < 250 nM | < 250 nM | < 250 nM | < 250 nM | 250 to 500 nM | COc1cc2ncnc(Oc3cccc(NC(=O)Nc4cc(C(C)(C)F)no4)c3)c2cc1O [Ex 258, 1-(3-(2-fluoropropan-2-yl)isoxazol-5-yl)-3-(3-(6-hydroxy-7-methoxyquinazolin-4-yloxy)phenyl)urea] |
| 500 to 1000 nM | > 1000 nM | > 1000 nM | > 1000 nM | > 1000 nM | COc1cc2ncnc([S+]([O-])c3cccc(NC(=O)Nc4cc(C(C)(C)C)on4)c3)c2cc1OC (centres unmarked) [Ex 253, 1-(5-tert-butylisoxazol-3-yl)-3-(3-(6,7-dimethoxyquinazolin-4-ylsulfinyl)phenyl)urea] |
| 500 to 1000 nM | < 250 nM | < 250 nM | < 250 nM | > 1000 nM | COCCOc1cc2ncnc(Oc3cccc(NC(=O)Nc4cc(C(C)C)on4)c3)c2cc1OC [Ex 206, 1-(5-isopropylisoxazol-3-yl)-3-(3-(6-methoxy-7-(2-methoxyethoxy)quinazolin-4-yloxy)phenyl)urea] |

| SMILES | IC50 [1] | Kd (RAF kinases [2]) | Kd (RAF kinases [3]) | Kd (RAF kinases [4]) | EC50 (A375 cells) |
| --- | --- | --- | --- | --- | --- |
| CCOC(=O)Cn1nc(C(C)(C)C)cc1NC(=O)Nc1cccc(Oc2ncnc3cc(OCCOC)c(OC)cc23)c1 [Ex 224, ethyl 2-[3-tert-butyl-5-(3-{3-[6-methoxy-7-(2-methoxyethoxy)quinazolin-4-yloxy]phenyl}ureido)-1H-pyrazol-1-yl]acetate hydrochloride] | > 1000 nM | > 1000 nM | > 1000 nM | > 1000 nM | > 1000 nM |
